Experimental data taken from US4088778A, “Method for the treatment of hypertension” (priority 1975, dated 1978).

Legend:
[1] = Clinical Experiment II: urine test; type: in vivo, human patients
Experimental: (§1) 75 patients of hypertension or arteriosclerosis having subjective symptoms were tested. Some of them suffered from complications such as ischemia heart disease and cerebral thrombosis. They are detailed in Table 11.
(§2) Two capsules were administered at one time, and the administration was conducted 3 times per day after eating. The duration of the continuous administration was 4 weeks. Combined use of drugs having the same functions as those of TN (vitamin E drugs, nicotinic acid, its derivatives and peripheral vasolidators) and minor tranquilizers was prohibited.

[2] = Subacute and chronic toxicities; type: in vivo; conditions: rats 100 to 1000 mg/Kg and beagles 100 mg/Kg daily, 3 or 6 months
Experimental: (B) Subacute and Chronic Toxicities:
TN and TA were separately administered to rats and beagles at daily doses of 100 to 1000 mg/Kg and 100 mg/Kg, respectively, continuously for 3 or 6 months.

[3] = Clinical Experiment II: kidney function test; type: in vivo, human patients; conditions: in mg/dL (unit assumed)
Experimental: as §1, §2
The kidney function test results are shown in Table 17, from which it will readily be understood that the variation of BUN values was within the normal region.

[4] = Clinical Experiment II: side effects; type: in vivo, human patients
Experimental: as §1, §2

[5] = Hypotensive effect on experimental hypertension caused by DOCA; type: in vivo, male wistar rats
Experimental: (A) Hypotensive effect on experimental hypertension caused by administration of desoxycorticosterone (hereinafter referred to as "DOCA"):
Right kidneys were removed from 6-week-old male wistar rats, and a 1% aqueous solution of sodium chloride was given as drinking water and 12.5 mg/Kg of DOCA was intramuscularly injected every week. The change of the blood pressure was examined over a period of 6 weeks.
48 rats, each having one kidney removed, were divided into 6 groups, each consisting of 8 rats, and each group was placed in a cage. With respect to each group, a gum arabic solution was administered to 2 rats as non-administered control animals. 20 mg/Kg of TN was administered once a day to each of two rats among the remaining 6 rats, and 100 mg/Kg of TN was administered once a day to each of two rats among the remaining 4 rats. 88 mg/Kg of TA was administered once a day to each of the remaining two rats. TN and TA were administered in the form of a suspension in gum arabic. The blood pressure was measured by a Shimazu type systolic pressure continuous recording apparatus detecting pulse waves of rats taken in a thermostat fixed box maintained at 30° C.

[6] = Clinical Experiment II, double blind: blood pressure; type: in vivo, human patients; conditions: for Maximum Pressure, Average Value, all patients / Maximum Pressure, Average Value, patients of hypertension / Maximum Pressure, Average Value, no hypotensive agent in combination with TN / Maximum Pressure, Average Value, hypotensive agent administered in combination with TN: in mmHg (unit assumed)
Experimental: Results of the clinical experiment conducted according to the double blind method in a different hospital will now be described.
as §1, §2
(a) Results of Blood Pressure Test: Variations of the blood pressure in all the patients and in the patients of hypertension alone are shown in Tables 12 and 13.
The change of the blood pressure in the patients of hypertension to whom a hypotensive agent was administrated in combination with TN is shown in Table 14, and the change of the blood pressure in the patients to whom no hypotensive agent was administrated in combination with TN is shown in Table 15.
In each of the foregoing Tables, N indicates the number of the patients, and S.D. denotes the standard deviation.

[7] = Clinical Experiment II: liver function test; type: in vivo, human patients; design: GOT, Average Value / GPT, Average Value / LDH, Average Value / ALP, Average Value: unit not given here
Experimental: as §1, §2

[8] = Clinical Test I, double blind: general improvement; type: in vivo, human patients; conditions: for General improvement: Not Changed / General improvement: Partial Improvement / General improvement: Remarkable Improvement / General improvement: Slight Improvement / General improvement: Worsened: number of patients
Experimental: Two capsules were orally administered at one time, and the administration was conducted three times a day after eating. The period of the administration was principally 4 weeks or 6 weeks. During this period, the administration was performed continuously. Combined administration of drugs having the same function as that of TN (vitamin E drugs, nicotinic acid, its derivatives and peripheral vasolidators) was prohibited.
The general improvement was evaluated by the attendant physician based on subjective symptoms and test results according to the following scale:
i: remarkable improvement
When 2, 4 or 6 weeks had passed from the start of the administration, the improvement was evaluated based on the symptoms before the administration.

[9] = conclusion of both clinical experiments

Cc1c(C)c2c(c(C)c1OC(=O)c1cccnc1)CCC(C)(CCCC(C)CCCC(C)CCCC(C)C)O2 (racemic) [TN, dl-α-tocopheryl nicotinate]
urine specific Gravity, Average Value ([1]; after administration, N 25, S.D. ±5.34): 1017.92 | urine specific Gravity, Average Value ([1]; before administration, N 25, S.D. ±5.56): 1017.56 | deaths [2]: no deaths | haematological, haemetobiological and histological surveys [2]: no manifestation of the toxicity was observed | inhibition of the body weight [2]: inhibition of the body weight was not observed | BUN, Average Value ([3]; after administration, N 27, S.D. ±8.48): 14.99 | BUN, Average Value ([3]; before administration, N 31, S.D. ±6.23): 14.74 | side effect: constipation ([4]; among 41 patients): another patient complained of constipation | side effect: light lack of appetite ([4]; among 41 patients): one | side effects in other patients ([4]; among 41 patients): no side effect was observed | side effects versus conventional hypotensive agents [4, 9]: much more reduced in TN than in conventional hypotensive agents | other various blood tests and the like: undesirable side effects ([4]; human, in vivo): None of results of other various blood tests and the like were suggestive of undesirable, side effects | number of rats with blood pressure elevated to 170 mm Hg or higher ([5]; 20 mg/kg of TN once a day, among 10 rats (control 9 among 11)): 5 rats | effect on increase of the blood pressure ([5]; 100 mg/kg of TN): especially conspicuous | number of rats with blood pressure elevated to 170 mm Hg or higher ([5]; 100 mg/kg of TN once a day, among 12 rats (control 9 among 11)): 3 rats | hypotensive effect, overall conclusion from pharmacological tests on animals ([5]; DOCA rats, old SHR, young SHR): have a hypotensive effect | hypotensive effect as compared with the P group ([6]; Tables 12 to 15, hypertension alone significant at level lower than 5%): the hypotensive effect was attained in the TN administrated group as compared with the P group | Maximum Pressure, Average Value, all patients ([6]; after administration (200 mg TN 3 times per day, 4 weeks), N 35, S.D. ±23.65): 141.40 | Minimum Pressure, Average Value, patients of hypertension ([6]; after administration (4 weeks), N 22, S.D. ±13.08): 87.45 | Maximum Pressure, Average Value, patients of hypertension ([6]; after administration (4 weeks), N 22, S.D. ±20.69, P < 0.05): 148.59 | Minimum Pressure, Average Value, all patients ([6]; after administration (4 weeks), N 35, S.D. ±13.64): 81.89 | Minimum Pressure, Average Value, no hypotensive agent in combination with TN ([6]; after administration, N 8, S.D. ±13.34): 87.50 | Maximum Pressure, Average Value, no hypotensive agent in combination with TN ([6]; after administration, N 8, S.D. ±19.95, P < 0.1): 146.13 | Minimum Pressure, Average Value, hypotensive agent administered in combination with TN ([6]; after administration, N 14, S.D. ±13.44): 87.43 | Maximum Pressure, Average Value, hypotensive agent administered in combination with TN ([6]; after administration, N 14, S.D. ±21.71): 150.00 | Minimum Pressure, Average Value, no hypotensive agent in combination with TN ([6]; before administration, N 8, S.D. ±16.40): 87.75 | Maximum Pressure, Average Value, no hypotensive agent in combination with TN ([6]; before administration, N 8, S.D. ±22.60): 161.50 | Minimum Pressure, Average Value, hypotensive agent administered in combination with TN ([6]; before administration, N 14, S.D. ±10.75): 89.71 | Maximum Pressure, Average Value, hypotensive agent administered in combination with TN ([6]; before administration, N 14, S.D. ±17.29): 159.29 | Minimum Pressure, Average Value, patients of hypertension ([6]; before administration, N 22, S.D. ±12.74): 89.00 | Maximum Pressure, Average Value, patients of hypertension ([6]; before administration, N 22, S.D. ±18.88): 160.09 | Minimum Pressure, Average Value, all patients ([6]; before administration, N 38, S.D. ±14.78): 81.37 | Maximum Pressure, Average Value, all patients ([6]; before administration, N 38, S.D. ±25.14): 144.63 | efficacy and safety conclusion [6, 9]: very effective and safe hypotensive agent | hypotensive effect on patients of hypertension versus P group [6, 9]: higher in the TN administered group than in the P group | effect durability ([6]; general conclusion): high effect durability | variation of GOT, GPT, LDH and ALP ([7]; Table 16): the variation was within the normal region | GOT, Average Value ([7]; after administration, N 29, S.D. ±9.51): 24.90 | ALP, Average Value ([7]; after administration, N 30, S.D. ±2.21): 7.21 | GPT, Average Value ([7]; after administration, N 30, S.D. ±13.40): 18.73 | LDH, Average Value ([7]; after administration, N 30, S.D. ±53.94): 245.03 | ALP, Average Value ([7]; before administration, N 34, S.D. ±2.36): 7.37 | LDH, Average Value ([7]; before administration, N 36, S.D. ±72.42): 251.28 | GOT, Average Value ([7]; before administration, N 37, S.D. ±14.92): 28.59 | GPT, Average Value ([7]; before administration, N 37, S.D. ±19.46): 22.73 | tendency of reduction of GOT and GPT ([7]; versus P group): greater in the TN administered group than in the P group | general improvement ratio over time ([8]; 2, 4, 6 weeks): the improvement ratio was increased every two weeks | General improvement: Improvement Ratio ([8]; 2 weeks, total 38, P group 68.6 %): 73.7% | significance of general improvement versus P group ([8]; 4 to 6 weeks): significantly better results were obtained in the TN group than in the P group | General improvement: Improvement Ratio ([8]; 4 weeks, total 39, P group 61.1 %, P = 0.0127): 87.2% | General improvement: Improvement Ratio ([8]; 6 weeks, total 21, P group 63.6 %, P = 0.0094): 95.2% | General improvement: Not Changed ([8]; 2 weeks, total 38): 9 | General improvement: Partial Improvement ([8]; 2 weeks, total 38): 13 | General improvement: Remarkable Improvement ([8]; 2 weeks, total 38): 6 | General improvement: Slight Improvement ([8]; 2 weeks, total 38): 9 | General improvement: Worsened ([8]; 2 weeks, total 38): 1 | General improvement: Not Changed ([8]; 4 weeks, total 39): 5 | General improvement: Partial Improvement ([8]; 4 weeks, total 39): 14 | General improvement: Remarkable Improvement ([8]; 4 weeks, total 39): 6 | General improvement: Slight Improvement ([8]; 4 weeks, total 39): 14 | General improvement: Worsened ([8]; 4 weeks, total 39): 0 | General improvement: Not Changed ([8]; 6 weeks, total 21): 1 | General improvement: Partial Improvement ([8]; 6 weeks, total 21): 7 | General improvement: Remarkable Improvement ([8]; 6 weeks, total 21): 8 | General improvement: Slight Improvement ([8]; 6 weeks, total 21): 5 | General improvement: Worsened ([8]; 6 weeks, total 21): 0
